The series can be described thus: Complex solubility in acetonitrile with 0.1 M tetrabutylammonium hexafluorophosphate. Type of series: physicochemical. To be noted: room temperature. The text has this: FIG. 8 is a graph depicting the complex solubility in acetonitrile with 0.1 M tetrabutylammonium hexafluorophosphate.

The structures appear in SMILES notation.

As for `CCC(CC[N-]C(=O)c1ccccn1)[N-]C(=O)c1ccccn1.[Ni+2]` (stereo not shown) [Ni((Etbppn)], the maximum solubility is 15 mM.

The values above are taken from patent US10910642B1, “Redox flow battery having ligand-metal complex” (Los Alamos National Security, LLC, priority 2017, dated 2021).
